Results reported in patent US12157736B2, “Spiro-lactam NMDA modulators and methods of using same” (Tenacia Biotechnology (Hong Kong) Co., Limited, priority 2016, dated 2024).

Key:
IV pharmacokinetics = type: in vivo, Sprague Dawley rats; details: rat, 2 mg/kg, normal saline
Method: Sprague Dawley rats were dosed intravenously using a normal saline formulation containing 2 mg/kg of the compounds identified in the below table. The table below summarizes the results of the IV pharmacokinetics.

NMDAR2C = target: T1, NMDAR2C (Homo sapiens, UniProt Q14957); assay: NMDAR agonist assay, [3H]MK-801 binding, NMDAR2C expressing HEK cell membranes; type: biochemical; details: 50 μM glutamate; for EC50: read-out: NMDAR2C: log EC50 (converted)
T1 construct: expressed in transfected cells; host or cells: HEK cells (membrane extract)
T1 sequence (Q14957 20-1233, species assumed, other chains not shown): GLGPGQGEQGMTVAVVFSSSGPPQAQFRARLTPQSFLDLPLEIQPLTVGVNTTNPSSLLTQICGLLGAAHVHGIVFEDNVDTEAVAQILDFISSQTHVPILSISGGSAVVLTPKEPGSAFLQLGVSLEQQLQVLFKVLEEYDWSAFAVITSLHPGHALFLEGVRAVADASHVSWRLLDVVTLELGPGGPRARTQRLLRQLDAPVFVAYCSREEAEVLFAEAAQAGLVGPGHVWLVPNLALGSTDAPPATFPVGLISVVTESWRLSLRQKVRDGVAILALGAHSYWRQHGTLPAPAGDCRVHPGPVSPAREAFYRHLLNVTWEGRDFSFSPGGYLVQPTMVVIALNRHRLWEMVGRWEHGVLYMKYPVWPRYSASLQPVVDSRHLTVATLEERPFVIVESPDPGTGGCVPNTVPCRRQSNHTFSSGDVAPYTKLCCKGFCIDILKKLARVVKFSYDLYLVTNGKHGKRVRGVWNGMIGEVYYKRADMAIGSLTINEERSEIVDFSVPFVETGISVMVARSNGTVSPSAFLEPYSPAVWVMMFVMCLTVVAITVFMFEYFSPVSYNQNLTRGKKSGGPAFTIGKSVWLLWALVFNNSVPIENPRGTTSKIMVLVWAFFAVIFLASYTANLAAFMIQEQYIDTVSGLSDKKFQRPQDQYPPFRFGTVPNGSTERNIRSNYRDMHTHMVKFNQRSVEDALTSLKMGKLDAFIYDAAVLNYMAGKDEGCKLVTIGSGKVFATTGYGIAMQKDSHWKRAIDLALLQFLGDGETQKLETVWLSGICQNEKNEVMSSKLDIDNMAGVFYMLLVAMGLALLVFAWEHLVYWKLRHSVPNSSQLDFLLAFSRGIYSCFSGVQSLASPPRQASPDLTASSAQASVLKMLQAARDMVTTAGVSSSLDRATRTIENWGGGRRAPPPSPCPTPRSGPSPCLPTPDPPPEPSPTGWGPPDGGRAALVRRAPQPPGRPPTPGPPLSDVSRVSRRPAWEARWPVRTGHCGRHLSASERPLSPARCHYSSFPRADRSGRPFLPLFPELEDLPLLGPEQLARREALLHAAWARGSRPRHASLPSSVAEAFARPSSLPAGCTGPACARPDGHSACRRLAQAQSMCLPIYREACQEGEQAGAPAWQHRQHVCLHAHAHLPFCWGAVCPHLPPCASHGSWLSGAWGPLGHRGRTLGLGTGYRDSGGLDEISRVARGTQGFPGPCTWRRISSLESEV
Method: (§1) Assays were conducted as described by Moskal et al., “GLYX-13: a monoclonal antibody-derived peptide that acts as an N-methyl-D-aspartate receptor modulator,” Neuropharmacology, 49, 1077-87, 2005. These studies were designed to determine if the test compounds act to facilitate NMDAR activation in NMDAR2A, NMDAR2B, NMDAR2C or NMDAR2D expressing HEK cell membranes as measured by increases in [^3H]MK-801 binding.
(§2) In the assay, 300 μg of NMDAR expressing HEK cell membrane extract protein was preincubated for 15 minutes at 25° C. in the presence of saturating concentrations of glutamate (50 μM) and varying concentrations of test compound (1×10^−15M−1×10^−7M), or 1 mM glycine. Following the addition of […] of [^3H]MK-801 (22.5 Ci/mmol), reactions were again incubated for 15 minutes at 25° C. (nonequilibrium conditions). Bound and free [^3H]MK-801 were separated via rapid filtration using a Brandel apparatus.
(§3) In analyzing the data, the DPM (disintegrations per minute) of [^3H]MK-801 remaining on the filter were measured for each concentration of test compound or for 1 mM glycine. The DPM values for each concentration of a ligand (N=2) were averaged. The baseline value was determined from the best fit curve of the DPM values modeled using the GraphPad program and the log(agonist) vs. response (three parameters) algorithm was then subtracted from all points in the dataset. The % maximal [3H]MK-801 binding was then calculated relative to that of 1 mM glycine: all baseline subtracted DPM values were divided by the average value for 1 mM glycine. The EC50 and % maximal activity were then obtained from the best fit curve of the % maximal [3H]MK-801 binding data modelled using the GraphPad program and the log(agonist) vs. response (three parameters) algorithm.
(§4) The tables below summarize the results for the wild type […] NMDAR2A, NMDAR2B, NMDAR2C, and NMDAR2D, and whether the compound is not an agonist (−), is an agonist (+), or is a strong agonist (++), where column A is based on the % maximal [3H]MK-801 binding relative to 1 mM glycine (−=0; <100%=+; and >100%=++); and column B is based on log EC50 values (0=−; ≥1×10^−9 M (e.g., −8)=+; and <1×10^−9 M (e.g., −10)=++).

NMDAR2D = target: T2, NMDAR2D (Homo sapiens, UniProt O15399); assay: NMDAR agonist assay, [3H]MK-801 binding, NMDAR2D expressing HEK cell membranes; type: biochemical; details: 50 μM glutamate
T2 construct: expressed in transfected cells; host or cells: HEK cells (membrane extract)
T2 sequence (O15399 28-1336, species assumed, other chains not shown): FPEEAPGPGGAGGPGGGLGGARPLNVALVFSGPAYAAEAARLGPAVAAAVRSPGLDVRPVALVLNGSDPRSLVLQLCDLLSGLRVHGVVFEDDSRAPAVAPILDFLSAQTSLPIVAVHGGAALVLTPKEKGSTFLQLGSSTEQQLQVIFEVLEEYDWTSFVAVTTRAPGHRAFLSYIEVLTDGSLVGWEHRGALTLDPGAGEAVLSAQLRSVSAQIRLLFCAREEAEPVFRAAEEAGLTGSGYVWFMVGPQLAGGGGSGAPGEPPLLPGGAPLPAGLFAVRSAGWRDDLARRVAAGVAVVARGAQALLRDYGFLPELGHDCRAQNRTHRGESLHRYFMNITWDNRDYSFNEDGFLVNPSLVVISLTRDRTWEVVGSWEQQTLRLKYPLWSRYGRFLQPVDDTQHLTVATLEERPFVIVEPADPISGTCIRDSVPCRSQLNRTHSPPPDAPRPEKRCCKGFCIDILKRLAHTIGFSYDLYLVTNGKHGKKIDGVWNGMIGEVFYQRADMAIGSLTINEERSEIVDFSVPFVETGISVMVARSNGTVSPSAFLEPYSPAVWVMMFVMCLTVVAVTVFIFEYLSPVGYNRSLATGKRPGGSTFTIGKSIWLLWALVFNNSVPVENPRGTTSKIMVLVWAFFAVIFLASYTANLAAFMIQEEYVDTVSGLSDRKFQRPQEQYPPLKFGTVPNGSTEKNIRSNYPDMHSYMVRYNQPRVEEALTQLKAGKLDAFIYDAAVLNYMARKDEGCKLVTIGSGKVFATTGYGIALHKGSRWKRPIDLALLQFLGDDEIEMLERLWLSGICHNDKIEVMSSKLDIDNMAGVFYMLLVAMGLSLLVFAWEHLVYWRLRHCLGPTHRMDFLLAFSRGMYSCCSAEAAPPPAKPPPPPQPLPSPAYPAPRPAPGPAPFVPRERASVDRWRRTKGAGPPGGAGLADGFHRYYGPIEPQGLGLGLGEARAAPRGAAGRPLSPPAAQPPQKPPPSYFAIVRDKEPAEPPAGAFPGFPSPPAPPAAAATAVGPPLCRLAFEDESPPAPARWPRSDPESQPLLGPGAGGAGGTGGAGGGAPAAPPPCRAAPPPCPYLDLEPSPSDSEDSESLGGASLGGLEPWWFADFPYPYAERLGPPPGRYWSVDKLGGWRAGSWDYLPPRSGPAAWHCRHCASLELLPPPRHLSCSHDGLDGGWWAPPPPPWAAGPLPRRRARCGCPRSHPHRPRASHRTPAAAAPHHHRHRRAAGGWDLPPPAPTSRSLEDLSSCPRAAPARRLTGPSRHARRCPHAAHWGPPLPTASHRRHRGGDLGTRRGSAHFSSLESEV
Method: as §1, §2
as §3, with “algorithm. […]” for “algorithm.”

NMDAR2A = target: T3, NMDAR2A (Homo sapiens, UniProt Q12879); assay: NMDAR agonist assay, [3H]MK-801 binding, NMDAR2A expressing HEK cell membranes; type: biochemical; details: 50 μM glutamate; for EC50: read-out: NMDAR2A: log EC50 (converted)
T3 construct: expressed in transfected cells; host or cells: HEK cells (membrane extract)
T3 sequence (Q12879 23-1464, species assumed, other chains not shown): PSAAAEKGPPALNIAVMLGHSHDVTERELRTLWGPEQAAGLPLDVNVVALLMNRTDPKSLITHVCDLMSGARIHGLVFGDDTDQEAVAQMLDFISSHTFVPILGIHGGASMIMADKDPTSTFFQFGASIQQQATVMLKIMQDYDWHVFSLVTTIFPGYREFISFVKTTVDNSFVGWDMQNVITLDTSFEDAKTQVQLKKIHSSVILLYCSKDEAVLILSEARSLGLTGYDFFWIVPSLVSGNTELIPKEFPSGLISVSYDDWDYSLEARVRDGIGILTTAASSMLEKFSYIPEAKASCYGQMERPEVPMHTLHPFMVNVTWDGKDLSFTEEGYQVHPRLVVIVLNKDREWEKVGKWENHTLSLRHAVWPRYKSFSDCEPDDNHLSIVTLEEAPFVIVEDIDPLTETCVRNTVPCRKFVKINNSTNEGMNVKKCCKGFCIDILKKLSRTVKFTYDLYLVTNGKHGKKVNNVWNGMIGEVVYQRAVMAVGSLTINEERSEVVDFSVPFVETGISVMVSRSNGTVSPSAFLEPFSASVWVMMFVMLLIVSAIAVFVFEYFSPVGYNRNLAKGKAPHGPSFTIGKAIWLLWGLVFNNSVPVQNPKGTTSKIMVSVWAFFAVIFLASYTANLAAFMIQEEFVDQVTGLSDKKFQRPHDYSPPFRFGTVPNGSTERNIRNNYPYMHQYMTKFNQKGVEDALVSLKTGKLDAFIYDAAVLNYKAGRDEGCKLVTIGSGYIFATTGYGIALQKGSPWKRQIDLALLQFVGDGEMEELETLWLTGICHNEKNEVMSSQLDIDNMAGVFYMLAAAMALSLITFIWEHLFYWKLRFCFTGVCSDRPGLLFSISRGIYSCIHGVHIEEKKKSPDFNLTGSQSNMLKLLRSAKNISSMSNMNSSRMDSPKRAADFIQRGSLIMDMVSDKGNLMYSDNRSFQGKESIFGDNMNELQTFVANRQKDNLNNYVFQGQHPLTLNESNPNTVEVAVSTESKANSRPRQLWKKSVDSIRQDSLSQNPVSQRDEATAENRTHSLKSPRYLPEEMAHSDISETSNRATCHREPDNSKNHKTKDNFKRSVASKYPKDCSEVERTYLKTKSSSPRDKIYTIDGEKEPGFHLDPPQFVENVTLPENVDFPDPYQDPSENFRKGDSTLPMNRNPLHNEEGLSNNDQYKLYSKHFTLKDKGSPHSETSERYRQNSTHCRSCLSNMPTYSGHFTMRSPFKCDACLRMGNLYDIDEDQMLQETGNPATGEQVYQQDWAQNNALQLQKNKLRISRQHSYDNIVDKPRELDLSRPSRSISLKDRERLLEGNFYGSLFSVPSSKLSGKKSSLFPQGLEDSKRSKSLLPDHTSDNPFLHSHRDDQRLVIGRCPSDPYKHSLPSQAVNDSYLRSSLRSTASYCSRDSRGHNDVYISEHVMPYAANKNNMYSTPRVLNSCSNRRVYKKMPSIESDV
Method: as §1, §2, §3, §4

rats [1] = assay: Porsolt forced swim test; type: in vivo, Sprague Dawley rats
Method: A non-clinical in vivo pharmacology study (Porsolt assay) was performed to measure antidepressant-like effects. A negative control (0.5% sodium carboxymethyl cellulose in 0.9% sterile saline vehicle) and a positive control (fluoxetine) are shown for comparison against test compound. The study allowed for the evaluation of the effects of each compound on the Porsolt forced swim test as assessed by the rats' response (reduced floating time) during a 5-minute swimming test.
(§5) Male 2-3 month old Sprague Dawley rats were used (Harlan, Indianapolis, IN). Rats were housed in Lucite cages with aspen wood chip bedding, maintained on a 12:12 light:dark cycle (lights on at 5 AM), and given ad libitum access to Purina lab chow (USA) and tap water throughout the study.
The Porsolt forced swim test adapted for use in rats was performed as described by Burgdorf et al., (The long-lasting antidepressant effects of rapastinel (GLYX-13) are associated with a metaplasticity process in the medial prefrontal cortex and hippocampus. Neuroscience 308:202-211, 2015). Animals were placed in a 46 cm tall×20 cm in diameter clear glass tube filled to 30 cm with tap water (23±1° C.) for 15 min on the first day (habituation) and 5 min on the subsequent test day. Positive control fluoxetine was dosed 3 times (24 h, 5 h and 1 h) prior to testing. Animals were tested 1 h or 24 h post-dosing with the test compounds or vehicle. Animals received a 15 min habituation session 1 day before the 5 min test. Water was changed after every other animal. Animals were videotaped, and floating time as defined as the minimal amount of effort required to keep the animals head above water was scored offline by a blinded experimenter with high inter-rater reliability (Pearson's r>0.9).
Each compound tested at dose level shown. Significance vs. vehicle group for each experiment is marked. […] A compound marked “No” was not statistically significant from vehicle. Data was averaged for test compound and vehicle groups (N approximately 8 per group) and the percent reduction in floating for group treated with test compound relative to group treated with vehicle is shown.

NMDAR2B = target: T4, NMDAR2B (Homo sapiens, UniProt Q13224); assay: NMDAR agonist assay, [3H]MK-801 binding, NMDAR2B expressing HEK cell membranes; type: biochemical; details: 50 μM glutamate
T4 construct: expressed in transfected cells; host or cells: HEK cells (membrane extract)
Method: as §1, §2, §3, §4

rats [2] = assay: Bennett model of mechanical analgesia (sciatic nerve chronic constriction injury); type: in vivo, Sprague Dawley rats; details: 150 mg/kg PO
Method: The Bennett model of mechanical analgesia is used to assess the analgesic effects of compounds as measured by paw withdrawal threshold. Bennett G J, Xie Y K, “A peripheral mononeuropathy in rat that produces disorders of pain sensation like those seen in man,” Pain 33:87-107, 1988. […] Vehicle animals receive the surgery and then receive vehicle rather than test compound. Animals were tested 1 hr, 24 h and 1 wk post-test compound or vehicle administration.
as §5, with “used. Harlan was the supplier for all studies.” for “used (Harlan, Indianapolis, IN).”
Rats were anesthetized using inhaled isoflurane (2.5%). Sciatic nerve chronic constriction nerve injury surgery was performed as previously described (Bennett and Xie, 1988). An incision (˜1.5 cm in length) was made with a scalpel blade dorsally through skin on the right hind limb, parallel and posterior to femur. Using a small pointed hemostat, the biceps femoris and gluteus superficialis muscles were separated. Using curved blunt forceps, the common sciatic nerve was isolated and exposed. For the mechanical analgesia studies, the whole sciatic nerve was ligated. Using hemostats/forceps and chromic gut (5-0), the nerve was loosely ligated with a square knot; 3 ligatures, 1 mm apart were placed on the nerve. […] Testing occurred approximately 2 weeks post-surgery.
During testing, rats were acclimated to the surface of a suspended wire mesh grid (1 cm×1 cm, with the wire being 0.3 cm in diameter) for 15-20 min. Starting from the smallest, each Von Frey filament was pressed perpendicularly to the plantar surface of the affected (ipsilateral) hind paw until slightly bent and then held for 6 second. If an obvious hind paw withdrawal or a flinching behavior immediately after the withdrawal of the filament was not observed, the next larger filament was used in the same manner. In case of a response, a lower filament was used. This was repeated until six responses were collected.
For all studies, animals were baselined prior to study start to test for allodynia (defined as a paw withdrawal threshold under 5). A subset of animals was tested with gabapentin (150 mg/kg, PO) to ensure at least 50% analgesia. Once it was confirmed animals were ready for study initiation, animals were balanced across groups. All study investigators were blind to treatment conditions. Animals were dosed with 0.1, 1, 10, or 30 mg/kg of test compound via oral gavage (PO), control sets of animals were dosed with gabapentin (150 mg/kg, PO) or vehicle (0.5% Na-CMC in 0.9% sterile saline, PO). Testing occurred 1 h post-dosing with animals retested 24 hrs and 1 week post-dosing. The percent analgesia calculations for each animal were made using the following equation: % analgesia=[(log(x)−y)/((log(z)−y)]*100, where x=the paw withdrawal threshold for the drug-treated animal in grams, y=the average of the log(x) values for the vehicle treated group, and z=the paw withdrawal threshold for naïve animals in grams (historical value of 15 used). The results for Compound AA-2, where the percentage of analgesia is measured at 1 hour, 24 hours, and 1 week after compound administration are as follows: for 0.1 mg/kg dose: 22.3% at 1 h, 1.6% at 24 h, and 2.3% at 1 wk; for 1 mg/kg dose: 19.2% at 1 h, 10.7% at 24 h, and 11.0% at 1 wk; for 10 mg/kg dose: 38.1% at 1 h, 24.3% at 24 h, and 41.4% at 1 wk; and for 30 mg/kg dose: 24.4% at 1 h, 8.7% at 24 h, and 34.5% at 1 wk.

[3] = 1 h post-dose, 0.1 mg/kg, Yes = statistically significant (p<=0.05) from vehicle
[4] = 24 h post-dose, 0.1 mg/kg, Yes = statistically significant (p<=0.05) from vehicle

| SMILES | CI (IV pharmacokinetics) [mL/min/kg] | NMDAR2C A: % maximal [3H]MK-801 binding relative to 1 mM glycine (NMDAR2C) | EC50 (NMDAR2C) [nM] | NMDAR2D: % maximal [3H]MK-801 binding relative to 1 mM glycine (NMDAR2D) | EC50 (NMDAR2A) [nM] | Significance vs. vehicle (rats [1]; [3]) | Significance vs. vehicle (rats [1]; [4]) | also measured |
| --- | --- | --- | --- | --- | --- | --- | --- | --- |
| COc1ccc(CN2CC3(CCNC(=O)C3)C2=O)cc1 (racemic) [AA-rac, 2-(4-methoxybenzyl)-2,7-diazaspiro[3.5]nonane-1,6-dione] | 5.28 | − (−=0) | > 100 | + (<100%=+) | > 100 | Yes | Yes |  |
| C[C@@H](O)[C@@H](C(=O)NCc1ccccc1)N1CC2(CCNC(=O)C2)C1=O (single isomer, unassigned) [CB] | 25.31 |  |  |  |  |  |  | NMDAR2A: % maximal [3H]MK-801 binding relative to 1 mM glycine (NMDAR2A): − (−=0); NMDAR2B: % maximal [3H]MK-801 binding relative to 1 mM glycine (NMDAR2B): + (<100%=+) |
| CCN1CCC2(CC1=O)CN(Cc1ccc(OC)cc1)C2=O (single isomer, unassigned) [CL, 7-ethyl-2-(4-methoxybenzyl)-2,7-diazaspiro[3.5]nonane-1,6-dione] | 41.73 |  |  |  |  |  |  | NMDAR2A: % maximal [3H]MK-801 binding relative to 1 mM glycine (NMDAR2A): + (<100%=+); NMDAR2B: % maximal [3H]MK-801 binding relative to 1 mM glycine (NMDAR2B): + (<100%=+) |
| COc1ccc(CN2C[C@]3(CCNC(=O)C3)C2=O)cc1 [AA-1, 2-(4-methoxybenzyl)-2,7-diazaspiro[3.5]nonane-1,6-dione] | 9.69 | − (−=0) | > 100 | + (<100%=+) | > 100 | Yes | Yes |  |
| COc1ccc(CN2C[C@@]3(CCNC(=O)C3)C2=O)cc1 [Compound AA-2, 2-(4-methoxybenzyl)-2,7-diazaspiro[3.5]nonane-1,6-dione] | 9.82 | − (−=0) | > 100 | + (<100%=+) | > 100 | Yes | Yes |  |
| CNCCC(Oc1ccc(C(F)(F)F)cc1)c1ccccc1 (stereo not shown) [Fluoxetine, fluoxetine, reference compound] |  |  |  |  |  |  |  | Significance vs. vehicle (rats [1]; 1 h post-dose, 20 mg/kg, dosed 3 times (24 h, 5 h and 1 h) prior to testing, positive control): Yes |
| NCC1(CC(=O)O)CCCCC1 [gabapentin] |  |  |  |  |  |  |  | % analgesia, control group of the study (rats [2]; 1 week post-administration): under 5%; % analgesia, example (typical) control values (rats [2]; 1 wk): 0%; % analgesia, example (typical) control values (rats [2]; 1 h): 72%; % analgesia, control group of the study (rats [2]; 1 h post-administration): at least 50%; % analgesia, example (typical) control values (rats [2]; 24 h): 16%; % analgesia, control group of the study (rats [2]; 24 h post-administration): under 5% |
